Bounds are passed on as bounds.

For test [1], the target named is CaPma1p (Candida albicans, UniProt A0A1D8PJ01, A570P/A595V/I574L/N594R/S601N). Nature of the test: biochemical.
Test [2] has as its target CaPma1p (Candida albicans, UniProt A0A1D8PJ01). As to the kind of experiment: ATPase activity. It is filed as biochemical.
In test [3] the target is CaPma1p (Candida albicans, UniProt A0A1D8PJ01, A570P/A595V/D557N/D559E/I574L/N594R/S564G/S601N/V186I/V531I). As to the kind of experiment: biochemical.
For test [4], the target named is CaPma1p-ScPma2p chimera expressed in Saccharomyces cerevisiae (C. albicans SC5314 (with residues of S. cerevisiae Pma2p)) (UniProt P28877). Nature of the test: SEC.

On to `[O]=[V]([OH])([OH])[OH]` [vanadate], for which the IC50 against CaPma1p [1], at CaPma1p [2] and against CaPma1p [3] was 2 to 9 µM each time.
In turn, “CaPma1p-ScPma2p chimera expressed in Saccharomyces cerevisiae (from UniProt P28877 1-895) (enzyme)” came in with a stoichiometry N in test [4] of more than 4.

The record behind these values is PMC4428687 (FEMS yeast research, 2013).
